Experiments:
NDM-1 = NDM-1 (Klebsiella pneumoniae, UniProt C7C422); experiment: biochemical; type: biochemical; details: CCF2-FA substrate, 2 hours at 25° C; read-out: NDM-1 IC50
Outline: (§1)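 Inhibitor was mixed with the metallo-β-lactamase and CCF2-FA. After 2 hours at 25° C, fluorescence of the coumarin–fluorescein cephalosporin substrate was read. IC50 was calculated with a 4-parameter fit.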

IMP-1 = IMP-1 (Serratia marcescens, UniProt P52699); experiment: biochemical; type: biochemical; details: CCF2-FA substrate, 2 hours at 25° C; read-out: IMP-1 IC50
IMP-1, sequence (P52699 whole entry, looked up, species assumed): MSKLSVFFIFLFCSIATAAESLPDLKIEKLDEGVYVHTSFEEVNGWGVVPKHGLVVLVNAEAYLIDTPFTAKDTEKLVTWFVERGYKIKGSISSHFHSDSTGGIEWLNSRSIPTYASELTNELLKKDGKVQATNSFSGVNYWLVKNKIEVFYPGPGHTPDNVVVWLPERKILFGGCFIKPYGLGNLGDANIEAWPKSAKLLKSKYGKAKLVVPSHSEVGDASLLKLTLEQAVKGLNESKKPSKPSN
Outline: as §1

VIM-1 = VIM-1 (Pseudomonas aeruginosa (strain ATCC 15692 / DSM 22644 / CIP 104116 / JCM 14847 / LMG 12228 / 1C / PRS 101 / PAO1), UniProt A0A0F7KYQ8); experiment: biochemical; details: CCF2-FA substrate, 2 hours at 25° C
Outline: as §1

[1] = tested on: P. aeruginosa expressing IMP-1, efflux− (MB9799); experiment: Efflux: concentration of MBL inhibitor which restores susceptibility to imipenem; type: cell-based, Pseudomonas aeruginosa; details: imipenem at 2 μg/mL, in the presence of a class A, C, D serine β-lactamase inhibitor closely related to relebactam
From the text: (§2) The strain background is Pseudomonas aeruginosa PAO1.

[2] = tested on: P. aeruginosa expressing IMP-1, efflux+ (MB9798); type: cell-based, Pseudomonas aeruginosa; details: for P. aeruginosa expressing IMP-1, efflux+ (MB9798) MITC95: imipenem at 2 μg/mL, in the presence of a class A, C, D serine β-lactamase inhibitor closely related to relebactam; for Efflux ratio: ratio MITC95 PA_9798/MITC95 PA_9799
From the text: as §2

[3] = tested on: Serratia marcescens expressing IMP-1 (CL5741); type: cell-based; details: with imipenem 1 μg/ml, 95% inhibition of bacterial growth; for Serratia marcescens MITC95: IMP-1 (CL5741)
Outline: (§3)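 Colonies from overnight 35 °C blood-agar cultures were suspended in saline, diluted 1:100 into 1.1× CAMHB and exposed to test compound with or without imipenem at 1 μg/ml. After 22–24 h at 35 °C, absorbance was read to find the concentration restoring imipenem susceptibility.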

[4] = tested on: Klebsiella pneumoniae expressing VIM-1 (IHMA599644); type: cell-based; details: with imipenem 1 μg/ml, 95% inhibition of bacterial growth; for Klebsiella pneumoniae MITC95: VIM-1 (IHMA599644)
Outline: as §3

[5] = tested on: Escherichia coli expressing NDM-1 (CLB30005, CLB30016); type: cell-based; details: with imipenem 1 μg/ml, 95% inhibition of bacterial growth; for Escherichia coli MITC95: NDM-1 (CLB30016)
Outline: as §3

NDM-1, sequence (C7C422 whole entry, looked up, species assumed): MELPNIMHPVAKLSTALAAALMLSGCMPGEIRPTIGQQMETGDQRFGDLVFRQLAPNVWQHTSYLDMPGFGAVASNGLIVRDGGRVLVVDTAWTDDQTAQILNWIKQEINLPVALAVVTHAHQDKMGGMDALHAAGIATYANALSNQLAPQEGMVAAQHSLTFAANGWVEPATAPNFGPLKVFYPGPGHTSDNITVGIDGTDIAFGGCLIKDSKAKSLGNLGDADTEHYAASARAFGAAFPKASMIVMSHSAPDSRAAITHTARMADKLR

Row | Compound | IC50 (NDM-1) | IC50 (IMP-1) | IC50 (VIM-1) | P. aeruginosa expressing IMP-1, efflux− (MB9799) MITC95 [1] | P. aeruginosa expressing IMP-1, efflux+ (MB9798) MITC95 [2] | Efflux ratio [2] | Serratia marcescens expressing IMP-1 (CL5741) MITC95 [3] | Klebsiella pneumoniae expressing VIM-1 (IHMA599644) MITC95 [4] | Escherichia coli expressing NDM-1 (CLB30016) MITC95 [5] | Serratia marcescens MITC95 [3] | Klebsiella pneumoniae MITC95 [4] | Escherichia coli MITC95 [5]
1 | N=C(N)Nc1ccccc1-c1ccc(S(=O)(=O)C2CNC2)c(S(N)(=O)=O)c1-c1nn[nH]n1 [Example 221, 4-(azetidin-3-ylsulfonyl)-2′-guanidino-2-(2H-tetrazol-5-yl)-[1,1′-biphenyl]-3-sulfonamide] | 5.13 nM | 44 nM | 6.95 nM | 3.125 µM | 50 µM | 16.00 | 12.5 µM | 12.5 µM | 6.25 µM |  |  | 
2 | Nc1ccc(-c2ccc(S(=O)(=O)C3CCNCC3)c(S(N)(=O)=O)c2-c2nn[nH]n2)cn1 [Example 24, 3-(6-aminopyridin-3-yl)-6-(piperidin-4-ylsulfonyl)-2-(2H-tetrazol-5-yl)benzenesulfonamide] | 0.382 nM | 0.528 nM | 0.218 nM | 1.563 µM | 3.125 µM | 2.00 | 3.125 µM | 3.125 µM | 3.125 µM |  |  | 
3 | NCCS(=O)(=O)c1ccc(-c2ccccc2N)c(-c2nn[nH]n2)c1S(N)(=O)=O [Example 339, 2′-Amino-4-((2-aminoethyl)sulfonyl)-2-(2H-tetrazol-5-yl)-[1,1′-biphenyl]-3-sulfonamide] | 2.52 nM | 3.42 nM | 1.78 nM | 1.563 µM | 6.25 µM | 4.00 |  |  |  | 3.125 µM | 3.125 µM | 1.563 µM
4 | CS(=O)(=O)c1ccc(-c2cnc3ccccn23)c(-c2nn[nH]n2)c1S(N)(=O)=O [Example 238, 3-(Imidazo[1,2-a]pyridin-3-yl)-6-(methylsulfonyl)-2-(2H-tetrazol-5-yl) benzenesulfonamide] | 0.862 nM | 0.333 nM | 0.201 nM | 1.563 µM | 50 µM | 31.99 | 3.125 µM | 6.25 µM | 3.125 µM |  |  | 
5 | NC[C@H](CO)S(=O)(=O)c1ccc(-c2cccc3nc(N)[nH]c23)c(-c2nn[nH]n2)c1S(N)(=O)=O [Example 351, (R)-3-(2-amino-1H-benzo[d]imidazol-7-yl)-6-((1-amino-3-hydroxypropan-2-yl)sulfonyl)-2-(1H-tetrazol-5-yl)benzenesulfonamide] | 0.2 nM | 1.36 nM | 0.711 nM | 0.7813 µM | 0.7813 µM | 1.00 |  |  |  | 0.7813 µM | 1.563 µM | 0.7813 µM
6 | Cn1nnc2ccc(-c3ccc(S(=O)(=O)C4CNC4)c(S(N)(=O)=O)c3-c3nnn[nH]3)cc21.O=C(O)C(F)(F)F [Example 119, 3-((4-(1-methyl-1H-benzo[d][1,2,3]triazol-6-yl)-2-sulfamoyl-3-(1H-tetrazol-5-yl)phenyl)sulfonyl)azetidin-1-ium 2,2,2-trifluoroacetate] | 1.8 nM | 5.74 nM | 0.506 nM | 1.563 µM | 100 µM | 63.98 | 6.25 µM | 6.25 µM | 6.25 µM |  |  | 
7 | NCCS(=O)(=O)c1ccc(-c2cccc3[nH]c(=O)[nH]c23)c(-c2nnn[nH]2)c1S(N)(=O)=O.O=C(O)C(F)(F)F [Example 150, 2-((4-(2-oxo-2,3-dihydro-1H-benzo[d]imidazol-4-yl)-2-sulfamoyl-3-(1H-tetrazol-5-yl)phenyl)sulfonyl)ethanaminium 2,2,2-trifluoroacetate] | 0.497 nM | 0.931 nM | 0.44 nM | 1.563 µM | 1.563 µM | 1.00 | 3.125 µM | 3.125 µM | 3.125 µM |  |  | 
8 | NCCS(=O)(=O)c1ccc(-c2ccc3[nH]c(=O)oc3c2)c(-c2nnn[nH]2)c1S(N)(=O)=O.O=C(O)C(F)(F)F [Example 155, 2-((4-(2-oxo-2,3-dihydrobenzo[d]oxazol-6-yl)-2-sulfamoyl-3-(1H-tetrazol-5-yl)phenyl)sulfonyl)ethanaminium 2,2,2-trifluoroacetate] | 0.814 nM | 0.226 nM | 0.289 nM | 0.7813 µM | 3.125 µM | 4.00 | 1.563 µM | 1.563 µM | 0.7813 µM |  |  | 
9 | NS(=O)(=O)c1c(S(=O)(=O)C2CNC2)ccc(-c2cccn3cc(C(=O)O)nc23)c1-c1nnn[nH]1 [Example 61, 8-(4-(Azetidin-3-ylsulfonyl)-3-sulfamoyl-2-(1H-tetrazol-5-yl)phenyl)imidazo[1,2-a]pyridine-2-carboxylic Acid] | 0.254 nM | 2.22 nM | 0.677 nM | 12.5 µM | 12.5 µM | 1.00 | 6.25 µM | 25 µM | 12.5 µM |  |  | 
10 | Nc1nc2c(-c3ccc(S(=O)(=O)C4CNC4)c(S(N)(=O)=O)c3-c3nn[nH]n3)cccc2[nH]1 [Example 43, 3-(2-amino-1H-benzo[d]imidazol-4-yl)-6-(azetidin-3-ylsulfonyl)-2-(2H-tetrazol-5-yl)benzenesulfonamide] | 0.0835 nM | 0.828 nM | 0.258 nM | 0.6406 µM | 0.6081 µM | 0.95 | 0.7982 µM | 1.151 µM | 0.2902 µM |  |  | 
11 | NS(=O)(=O)c1c(S(=O)(=O)C2CNC2)ccc(C2=CCS(=O)(=O)CC2)c1-c1nn[nH]n1 [Example 218, 6-(azetidin-3-ylsulfonyl)-3-(1,1-dioxido-3,6-dihydro-2H-thiopyran-4-yl)-2-(2H-tetrazol-5-yl) benzenesulfonamide] | 1.75 nM | 3.55 nM | 2.23 nM | 1.563 µM | 12.5 µM | 8.00 | 1.563 µM | 3.125 µM | 0.3906 µM |  |  | 
